Legend:
Human GPR40 [1] = target: T1, Human GPR40 (Homo sapiens, UniProt O14842); experiment: FLIPR assay, agonist-induced calcium mobilization; format: cell-based; set-up: expressed in transfected cells; conditions: GPR40/CHO NFAT BLA cells
Experimental: (§1) Human and mouse GPR40 stable cell-lines were generated in CHO cells stably expressing NFAT BLA (Beta-lactamase). A human GPR40 stable cell-line was generated in HER cells stably expressing the aequorin expressing reporter. The expression plasmids were transfected using lipofectamine (Life Technologies) following manufacturer's instructions. Stable cell-lines were generated following drug selection.
FLIPR (Fluorimetric Imaging Plate Reader, Molecular Devices) assays were performed to measure agonist-induced calcium mobilization of the stable clones. For the FLIPR assay, one day before assay, GPR40/CHO NFAT BLA cells were seeded into black-wall-clear-bottom 384-well plates (Costar) at 1.4×10e4 cells/20 μL medium/well. The cells were incubated with 20 μl/well of the assay buffer (HMS, 0.1% BSA, 20 mM HEPES, 2.5 mM probenecid, pH 7.4) containing 8 μM fluo-4, AM, 0.08% pluronic acid at room temperature for 100 minutes. Fluorescence output was measured using FLIPR. Compounds were dissolved in DMSO and diluted to desired concentrations with assay buffer. 13.3 μL/well of compound solution was added.

Human GPR40 [2] = target: T1, Human GPR40; experiment: Inositol Phosphate Turnover (IP1) Assay; format: cell-based; set-up: expressed in transfected cells; host or cells: HEK cells (stably expressing the aequorin reporter); conditions: HEK cells stably expressing human GPR40, CisBio IP-One kit
Experimental: as §1
The assay is performed in 384-well format. HEK cells stably expressing human GPR40 are plated at 15,000 cells per well in growth medium (DMEM/10% fetal calf serum). Cell plates are then incubated 16 hours at 37 degrees in a 5% CO2 incubator.
Measurement of Inositol Phosphate Turnover (IP1) is performed using the CisBio IP-One kit (Part number 62IPAPEB). After the 16 hour incubation, the cells are washed with HEPES buffer and 10 ul of stimulation buffer (prepared as described in the kit) is added to each well. In a separate plate, compounds are diluted in DMSO (400-fold over the final concentration in the assay well) and 25 nl is acoustically transferred to the appropriate well in the assay cell plate. The plates are then incubated for 60 minutes at 37 degrees. 10 ul of detection buffer (also prepared as described in the IP-One kit) is added to each well and the plates are incubated for 60 minutes in the dark. The plates are then read in a Perkin Elmer EnVision or equivalent reader able to measure FRET. Fluorescent ratio of emission at 665 and 620 nm is then converted to IP1 concentration by back calculating from an IP1 standard curve prepared at the time of the assay.

T1 sequence (O14842 whole entry): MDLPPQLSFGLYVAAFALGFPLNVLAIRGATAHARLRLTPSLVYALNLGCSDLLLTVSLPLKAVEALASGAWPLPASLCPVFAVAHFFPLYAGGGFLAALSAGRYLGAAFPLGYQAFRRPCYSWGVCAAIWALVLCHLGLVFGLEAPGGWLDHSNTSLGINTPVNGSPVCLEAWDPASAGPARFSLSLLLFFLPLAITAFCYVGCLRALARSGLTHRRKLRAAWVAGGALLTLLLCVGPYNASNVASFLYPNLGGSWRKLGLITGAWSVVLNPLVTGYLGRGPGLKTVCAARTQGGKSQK

Compound | EC50 (Human GPR40 [1]) | EC50 (Human GPR40 [2])
O=C1CC(c2ccccc2C(F)(F)F)c2cc(COc3cc4c(cn3)[C@H]3[C@@H](C4)[C@@H]3C(=O)O)ccc21 (stereo partly drawn) [Example 2, (5aR,6S,6aS)-3-((1-oxo-3-(2-(trifluoromethyl)-phenyl)-2,3-dihydro-1H-inden-5-yl)methoxy)-5,5a,6,6a-tetrahydro-cyclopropa[4,5]cyclopenta [1,2-c]pyridine-6-carboxylic acid] | 50.5 nM | 47.4 nM
CC1(C)CC(c2ccccc2C(F)(F)F)c2cc(COc3cc4c(cn3)[C@H]3[C@@H](C4)[C@@H]3C(=O)O)ccc21 (stereo partly drawn) [Example 3, (5aR,6S,6aS)-3-((1,1-dimethyl-3-(2-(trifluoromethyl)phenyl)-2,3-dihydro-1H-inden-5-yl)methoxy)-5,5a,6,6a-tetrahydrocyclopropa[4,5]cyclopenta[1,2-c]pyridine-6-carboxylic acid] | 9.28 nM | 769 nM
CC1(C)C=C(c2ccccc2C(F)(F)F)c2cc(COc3cc4c(cn3)[C@H]3[C@@H](C4)[C@@H]3C(=O)O)ccc21 [Example 4] | 13.7 nM | 18 nM
CC1CC(c2ccccc2C(F)(F)F)c2cc(COc3cc4c(cn3)[C@H]3[C@@H](C4)[C@@H]3C(=O)O)ccc21 (stereo partly drawn) [Example 5, (5aR,6S,6aS)-3-((1-methyl-3-(2-(trifluoromethyl)phenyl)-2,3-dihydro-1H-inden-5-yl)methoxy)-5,5a,6,6a-tetrahydrocyclopropa[4,5]cyclopenta[1,2-c]pyridine-6-carboxylic acid] | 20.8 nM | 21.6 nM
O=C(O)[C@H]1[C@@H]2Cc3cc(OCc4ccc5c(c4)C(c4ccccc4C(F)(F)F)CC54CCC4)ncc3[C@@H]21 (stereo partly drawn) [Example 6, (5aR,6S,6aS)-3-((3′-(2-(trifluoromethyl)phenyl)-2′,3′-dihydrospiro[cyclobutane-1,1′-inden]-5′-yl)methoxy)-5,5a,6,6a-tetrahydrocyclopropa[4,5]cyclopenta[1,2-c]pyridine-6-carboxylic acid] | 22.9 nM | 22.6 nM
O=C(O)[C@H]1[C@@H]2Cc3cc(OCc4ccc5c(c4)C(c4ccccc4C(F)(F)F)CC54COC4)ncc3[C@@H]21 (stereo partly drawn) [Example 7, (5aR,6S,6aS)-3-((3-(2-(trifluoromethyl)phenyl)-2,3-dihydrospiro[indene-1,3′-oxetan]-5-yl)methoxy)-5,5a,6,6a-tetrahydrocyclopropa[4,5]cyclopenta[1,2-c]pyridine-6-carboxylic acid] | 32.9 nM | 35.3 nM
CC1(C)OCC2(CO1)CC(c1ccccc1C(F)(F)F)c1cc(COc3cc4c(cn3)[C@H]3[C@@H](C4)[C@@H]3C(=O)O)ccc12 (stereo partly drawn) [Example 8, (5aR,6S,6aS)-3-((2,2-dimethyl-3′-(2-(trifluoromethyl)phenyl)-2′,3′-dihydrospiro[[1,3]dioxane-5,1′-inden]-5′-yl)methoxy)-5,5a,6,6a-tetrahydrocyclopropa[4,5]cyclopenta[1,2-c]pyridine-6-carboxylic acid] | 12.3 nM | 21.1 nM
CC1(C)CC(c2ccccc2)c2cc(COc3cc4c(cn3)[C@H]3[C@@H](C4)[C@@H]3C(=O)O)ccc21 (stereo partly drawn) [Example 9, (5aR,6S,6aS)-3-((1,1-dimethyl-3-phenyl-2,3-dihydro-1H-inden-5-yl)methoxy)-5,5a,6,6a-tetrahydrocyclopropa[4,5]cyclopenta[1,2-c]pyridine-6-carboxylic acid] | 16.9 nM | 22.4 nM
CC1(C)CC(c2c(F)cccc2F)c2cc(COc3cc4c(cn3)[C@H]3[C@@H](C4)[C@@H]3C(=O)O)ccc21 (stereo partly drawn) [Example 10, (5aR,6S,6aS)-3-((3-(2,6-difluorophenyl)-1,1-dimethyl-2,3-dihydro-1H-inden-5-yl)methoxy)-5,5a,6,6a-tetrahydro-cyclopropa[4,5]cyclopenta [1,2-c]pyridine-6-carboxylic acid] | 4.9 nM | 38.9 nM

Reference: patent publication US10000454B2, “Antidiabetic tricyclic compounds” (Merck Sharp & Dohme Corp., priority 2014, dated 2018)
